Reference: ChEMBL document CHEMBL1201862, “PubChem BioAssay data set” (2004)
The source made the active and inactive calls.

What was measured:
Estrogen receptor beta = Estrogen receptor beta (Homo sapiens, UniProt Q92731); experiment: blockers of SRC-3 recruitment to ERβ – biochemical, ELISA, streptavidin-HRP readout, orthogonal assay, confirmation (AID 1060)
Estrogen receptor = molecular target: T1, Estrogen receptor (Homo sapiens, UniProt P03372);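 note: potency for inhibiting coactivator peptide recruitment to the receptor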
T1 sequence (P03372 whole entry): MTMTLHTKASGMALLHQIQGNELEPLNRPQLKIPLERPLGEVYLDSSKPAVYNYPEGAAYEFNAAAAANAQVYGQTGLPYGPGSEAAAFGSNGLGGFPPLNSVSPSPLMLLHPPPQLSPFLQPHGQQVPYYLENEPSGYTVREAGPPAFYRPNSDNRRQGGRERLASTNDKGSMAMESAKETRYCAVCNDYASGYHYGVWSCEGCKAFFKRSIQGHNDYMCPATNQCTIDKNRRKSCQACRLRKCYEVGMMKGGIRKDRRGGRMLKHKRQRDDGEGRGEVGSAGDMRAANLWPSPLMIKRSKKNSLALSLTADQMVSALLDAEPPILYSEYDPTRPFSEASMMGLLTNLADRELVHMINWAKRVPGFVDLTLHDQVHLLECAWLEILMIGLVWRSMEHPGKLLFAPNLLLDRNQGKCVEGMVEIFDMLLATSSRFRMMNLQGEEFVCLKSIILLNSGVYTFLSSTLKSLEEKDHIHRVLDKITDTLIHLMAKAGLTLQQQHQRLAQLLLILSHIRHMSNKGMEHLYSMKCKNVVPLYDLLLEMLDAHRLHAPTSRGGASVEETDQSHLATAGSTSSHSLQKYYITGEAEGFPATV

[1] = Luminescence Cell-Based Dose Retest to Confirm Inhibitors of Cancer Stem Cells. [Related pubchem assays (depositor defined):AID2717, AID2721]; format: functional, Homo sapiens; settings: Homo sapiens
INS1 = experiment: INS-1E survival protection against cytokine death – cell-based, luminescence, retest, dose response (AID 449756); format: functional; settings: Rattus norvegicus;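 note: cell death triggered by IL-1 beta plus TNF-alpha plus IFN-gamma mixture; protective hits raise ATP signal compared with cytokine alone wells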
Nonstructural protein 1 = Nonstructural protein 1 (Influenza A virus, UniProt Q194T2); format: functional, Influenza A virus (A/California/07/2009(H1N1))
Chain of Nonstructural protein 1 (Q194T2 whole entry): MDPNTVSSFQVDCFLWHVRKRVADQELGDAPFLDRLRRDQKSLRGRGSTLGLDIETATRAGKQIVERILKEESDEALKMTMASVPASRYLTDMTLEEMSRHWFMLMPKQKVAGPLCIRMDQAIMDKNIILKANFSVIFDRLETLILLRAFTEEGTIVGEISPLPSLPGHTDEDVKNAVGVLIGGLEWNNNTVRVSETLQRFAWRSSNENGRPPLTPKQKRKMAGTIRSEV

[2] = molecular target: T2, Voltage-gated N-type calcium channel alpha-1B subunit/Amyloid beta A4 precursor protein-binding family A member 1 (Homo sapiens, UniProt Q00975+Q02410); format: protein assay
T2 sequence (Q00975 whole entry): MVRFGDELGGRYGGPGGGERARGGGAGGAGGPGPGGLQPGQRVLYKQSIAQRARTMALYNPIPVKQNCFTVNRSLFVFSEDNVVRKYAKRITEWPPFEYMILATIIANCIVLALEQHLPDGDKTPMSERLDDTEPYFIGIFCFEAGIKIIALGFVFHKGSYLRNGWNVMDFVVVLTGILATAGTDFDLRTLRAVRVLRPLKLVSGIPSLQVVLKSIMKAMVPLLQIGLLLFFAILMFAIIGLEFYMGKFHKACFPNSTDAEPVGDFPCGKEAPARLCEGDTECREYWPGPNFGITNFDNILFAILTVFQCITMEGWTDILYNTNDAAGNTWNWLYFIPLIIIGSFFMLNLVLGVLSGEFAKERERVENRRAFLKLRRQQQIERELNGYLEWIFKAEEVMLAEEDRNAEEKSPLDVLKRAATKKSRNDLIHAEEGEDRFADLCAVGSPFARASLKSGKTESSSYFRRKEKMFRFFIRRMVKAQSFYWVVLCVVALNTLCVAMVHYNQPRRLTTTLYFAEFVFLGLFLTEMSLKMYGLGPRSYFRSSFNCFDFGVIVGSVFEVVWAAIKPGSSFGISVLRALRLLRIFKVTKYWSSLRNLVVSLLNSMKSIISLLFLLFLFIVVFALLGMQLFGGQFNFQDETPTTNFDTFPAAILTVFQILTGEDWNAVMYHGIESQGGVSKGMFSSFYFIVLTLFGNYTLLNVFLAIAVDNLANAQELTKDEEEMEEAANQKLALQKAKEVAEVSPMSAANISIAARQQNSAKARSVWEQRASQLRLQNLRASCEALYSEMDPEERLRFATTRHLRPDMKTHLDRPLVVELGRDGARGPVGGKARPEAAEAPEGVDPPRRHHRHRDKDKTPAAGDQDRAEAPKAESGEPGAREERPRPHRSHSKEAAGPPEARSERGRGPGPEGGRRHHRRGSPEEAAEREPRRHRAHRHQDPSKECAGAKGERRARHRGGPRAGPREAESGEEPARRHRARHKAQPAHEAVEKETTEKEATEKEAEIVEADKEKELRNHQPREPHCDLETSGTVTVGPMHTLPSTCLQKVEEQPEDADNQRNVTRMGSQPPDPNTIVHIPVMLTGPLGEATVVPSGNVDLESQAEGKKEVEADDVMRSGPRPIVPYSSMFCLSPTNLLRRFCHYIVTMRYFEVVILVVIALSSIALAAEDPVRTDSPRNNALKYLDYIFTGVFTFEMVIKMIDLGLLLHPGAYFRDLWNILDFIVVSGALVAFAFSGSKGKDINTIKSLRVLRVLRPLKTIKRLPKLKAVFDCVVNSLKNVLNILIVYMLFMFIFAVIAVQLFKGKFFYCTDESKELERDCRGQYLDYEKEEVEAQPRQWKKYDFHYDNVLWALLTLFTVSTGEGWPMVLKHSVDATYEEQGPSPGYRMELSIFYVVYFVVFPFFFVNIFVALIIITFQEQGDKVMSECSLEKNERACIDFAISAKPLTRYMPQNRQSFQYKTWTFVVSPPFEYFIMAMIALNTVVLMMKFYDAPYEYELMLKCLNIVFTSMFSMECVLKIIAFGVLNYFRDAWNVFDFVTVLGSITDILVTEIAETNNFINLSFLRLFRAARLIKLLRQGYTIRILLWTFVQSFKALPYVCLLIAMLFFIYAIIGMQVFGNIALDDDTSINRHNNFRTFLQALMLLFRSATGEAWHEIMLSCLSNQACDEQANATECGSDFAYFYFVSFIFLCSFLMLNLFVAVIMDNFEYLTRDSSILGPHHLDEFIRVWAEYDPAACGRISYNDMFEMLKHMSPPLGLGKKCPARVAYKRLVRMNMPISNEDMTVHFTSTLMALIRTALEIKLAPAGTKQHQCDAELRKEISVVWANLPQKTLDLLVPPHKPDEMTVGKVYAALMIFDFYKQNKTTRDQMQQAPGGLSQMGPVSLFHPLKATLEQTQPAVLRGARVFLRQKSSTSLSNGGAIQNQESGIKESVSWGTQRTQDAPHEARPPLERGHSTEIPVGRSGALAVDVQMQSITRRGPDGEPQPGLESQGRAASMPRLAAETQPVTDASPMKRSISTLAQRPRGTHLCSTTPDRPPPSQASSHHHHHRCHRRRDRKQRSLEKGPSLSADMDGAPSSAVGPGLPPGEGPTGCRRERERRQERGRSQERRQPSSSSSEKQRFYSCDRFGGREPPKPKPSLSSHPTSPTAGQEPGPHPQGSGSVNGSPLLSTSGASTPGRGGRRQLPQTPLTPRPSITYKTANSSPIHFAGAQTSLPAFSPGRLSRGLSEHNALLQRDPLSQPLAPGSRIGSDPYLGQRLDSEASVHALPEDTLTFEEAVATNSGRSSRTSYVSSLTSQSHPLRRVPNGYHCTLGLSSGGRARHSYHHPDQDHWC
T2 sequence (Q02410 whole entry): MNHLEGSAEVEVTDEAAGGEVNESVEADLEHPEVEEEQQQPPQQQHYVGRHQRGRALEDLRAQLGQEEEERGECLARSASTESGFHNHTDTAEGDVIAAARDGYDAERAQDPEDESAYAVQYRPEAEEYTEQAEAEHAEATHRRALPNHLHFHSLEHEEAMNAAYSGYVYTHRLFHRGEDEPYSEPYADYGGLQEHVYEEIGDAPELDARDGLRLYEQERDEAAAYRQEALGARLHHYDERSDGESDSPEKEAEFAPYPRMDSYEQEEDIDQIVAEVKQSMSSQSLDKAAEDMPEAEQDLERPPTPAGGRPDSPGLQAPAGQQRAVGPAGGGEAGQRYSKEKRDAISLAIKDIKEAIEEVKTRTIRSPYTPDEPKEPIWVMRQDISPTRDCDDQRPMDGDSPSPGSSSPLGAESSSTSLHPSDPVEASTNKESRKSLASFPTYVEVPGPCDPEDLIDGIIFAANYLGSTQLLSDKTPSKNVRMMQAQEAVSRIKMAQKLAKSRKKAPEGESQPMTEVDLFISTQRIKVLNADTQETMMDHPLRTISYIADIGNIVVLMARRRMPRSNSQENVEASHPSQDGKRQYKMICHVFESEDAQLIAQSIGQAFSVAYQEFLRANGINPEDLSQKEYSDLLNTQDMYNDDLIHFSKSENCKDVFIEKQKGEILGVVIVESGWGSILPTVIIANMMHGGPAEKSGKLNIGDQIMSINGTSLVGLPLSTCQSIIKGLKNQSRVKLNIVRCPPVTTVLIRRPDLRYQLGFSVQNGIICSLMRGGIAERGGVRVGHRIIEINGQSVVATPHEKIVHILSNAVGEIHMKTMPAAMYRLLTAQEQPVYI

[3] = molecular target: T2, Voltage-gated N-type calcium channel alpha-1B subunit/Amyloid beta A4 precursor protein-binding family A member 1; format: protein assay; remark: listed apart in the source
[4] = luciferase reporter signal suppression in cells – H4 neuroglioma cells, luminescence, dose response (AID 1990); format: functional, cell-based
[5] = Luminescence Cell-Based Dose Response HTS to Identify Inhibitors of 5'UTR Stem-Loop Driven Prion Protein mRNA Translation in H4 Neuroglioblastoma Cells. [Related pubchem assays: 1827 (Project Summary), 1813 (Primary HTS)]; format: functional
[6] = alpha-synuclein stem-loop luciferase translation blockers – H4 neuroglioma cells, luminescence, confirmation (AID 1988); format: functional, cell-based
Mu-type opioid receptor = Mu-type opioid receptor (Homo sapiens, UniProt P35372); format: functional, cell-based;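 note: U2OS cells with beta-arrestin recruitment to OPRM1 by beta-gal complementation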
Chain of Mu-type opioid receptor (P35372 whole entry): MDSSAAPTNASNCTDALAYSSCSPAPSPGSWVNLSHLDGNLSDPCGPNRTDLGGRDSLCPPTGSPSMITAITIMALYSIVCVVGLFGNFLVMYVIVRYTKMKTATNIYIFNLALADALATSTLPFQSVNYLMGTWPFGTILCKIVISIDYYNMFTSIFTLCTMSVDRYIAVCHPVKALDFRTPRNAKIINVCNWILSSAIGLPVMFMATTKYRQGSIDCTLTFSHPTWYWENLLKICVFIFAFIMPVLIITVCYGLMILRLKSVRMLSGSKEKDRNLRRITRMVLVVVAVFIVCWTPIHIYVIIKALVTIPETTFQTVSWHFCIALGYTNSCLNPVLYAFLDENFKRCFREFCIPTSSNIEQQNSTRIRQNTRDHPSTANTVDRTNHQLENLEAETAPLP

[7] = molecular target: 5-hydroxytryptamine receptor 2A (Mus musculus, UniProt P35363); format: functional, cell-based;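 note: CHO-K1 cells with tagged receptor and beta-arrestin; agonist potency measured as compound-induced activation of the receptor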
Chain of 5-hydroxytryptamine receptor 2A (P35363 whole entry): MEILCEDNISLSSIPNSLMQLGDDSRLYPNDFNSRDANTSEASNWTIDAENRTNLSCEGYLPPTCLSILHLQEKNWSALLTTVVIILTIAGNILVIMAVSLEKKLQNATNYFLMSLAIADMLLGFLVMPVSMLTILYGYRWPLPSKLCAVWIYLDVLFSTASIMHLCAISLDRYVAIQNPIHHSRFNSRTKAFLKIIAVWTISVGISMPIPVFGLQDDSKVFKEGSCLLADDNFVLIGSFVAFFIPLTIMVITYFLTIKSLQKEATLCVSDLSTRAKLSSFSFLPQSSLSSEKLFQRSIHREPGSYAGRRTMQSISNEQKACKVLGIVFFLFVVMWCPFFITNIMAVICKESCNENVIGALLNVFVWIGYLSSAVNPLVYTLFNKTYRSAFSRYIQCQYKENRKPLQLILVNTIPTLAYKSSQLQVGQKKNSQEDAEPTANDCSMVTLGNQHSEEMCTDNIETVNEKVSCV

[8] = blockade of melanocortin 4 receptor signaling – cell-based, plate reader, cherry pick, counter-screen for LGR2 antagonist project, dose response (AID 743444); format: functional;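 note: transfected HEK 293 cells stimulated with alpha-MSH peptide; potency of inhibitors of the alpha-MSH evoked signal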
[9] = viability loss in HEK293 cells – cell-based, plate reader, cherry-picked samples, cytotoxicity control, dose response (AID 743446); format: functional
[10] = HEK-293T viability loss after treatment – luminescence, T-cell screen hits, cytotoxicity control for TCR NF-kB inhibitor project, dose response (AID 489026); format: functional, cell-based;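 note: cells exposed to compound about 14 hours before the viability readout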
[11] = molecular target: T3, Small ubiquitin-related modifier 1 (Homo sapiens, UniProt P63165); experiment: SUMO1 protein interaction blockers, potency – biochemical, fluorescence polarization, uHTS hits, dose response (AID 624382); format: functional; settings: read-out: IC50_Mean
T3 sequence (P63165 whole entry): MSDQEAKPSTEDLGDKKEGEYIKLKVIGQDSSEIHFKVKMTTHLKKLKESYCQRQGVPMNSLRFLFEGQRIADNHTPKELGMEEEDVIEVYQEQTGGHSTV

[12] = molecular target: T3, Small ubiquitin-related modifier 1; experiment: SUMO1 protein-protein binding blockers, potency – biochemical, FRET, dose response (AID 624383); format: functional; settings: read-out: IC50_Mean
[13] = molecular target: Heat shock protein HSP 90-alpha (Homo sapiens, UniProt P07900); format: functional, organism-based

Chain of Estrogen receptor beta (Q92731 whole entry): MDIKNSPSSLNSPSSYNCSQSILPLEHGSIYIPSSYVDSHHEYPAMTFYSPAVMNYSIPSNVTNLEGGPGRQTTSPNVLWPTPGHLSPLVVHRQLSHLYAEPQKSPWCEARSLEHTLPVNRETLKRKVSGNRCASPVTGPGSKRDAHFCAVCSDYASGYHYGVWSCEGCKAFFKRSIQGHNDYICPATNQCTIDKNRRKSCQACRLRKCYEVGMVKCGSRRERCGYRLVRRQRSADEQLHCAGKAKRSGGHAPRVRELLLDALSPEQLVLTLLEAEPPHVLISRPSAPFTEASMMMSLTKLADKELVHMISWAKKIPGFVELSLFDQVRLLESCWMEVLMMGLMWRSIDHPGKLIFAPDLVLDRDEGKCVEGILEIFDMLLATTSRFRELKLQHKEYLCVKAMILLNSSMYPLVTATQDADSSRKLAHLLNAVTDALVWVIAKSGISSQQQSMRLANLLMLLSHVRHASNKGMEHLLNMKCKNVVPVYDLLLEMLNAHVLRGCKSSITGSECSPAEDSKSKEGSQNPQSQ

With `O=C(c1ccc(CS(=O)(=O)c2ccccc2)o1)N1CCC2(CC1)OCCO2` the IC50 (Estrogen receptor beta) was 4.05 µM (not active).

In the case of `C=CCn1c(COc2cccc(C)c2)nnc1SCC(=O)NC(=O)NCc1ccco1`, the IC50 (Estrogen receptor) is reported as 14.8 µM (active).

For `Nc1ccccc1N/C=C1\C(=O)NC(=O)N(CCC2=CCCCC2)C1=O`, the IC50 (Estrogen receptor) was > 50 µM (not active), the AC50 [1] was 81.2 µM (active) and the AC50 (INS1) was 28.2 µM (active).

In the case of `COc1ccc(NC(=O)CSc2nn3c(=O)c(C)nnc3s2)cc1`, the IC50 (Nonstructural protein 1) is reported as 8.25 µM (active).

With `CCn1ccnc1CNCc1cn(-c2cc(C)ccc2C)nc1-c1ccccc1` the IC50 (Nonstructural protein 1) was 11.8 µM (active).

In the case of `CC1=C(C(=O)O)N2C(=O)C(NC(=O)c3ccccc3Cl)C2SC1` (stereo unspecified), the IC50 [2] is reported as 0.749 µM (active) and the IC50 [3] is reported as > 50 µM (inactive).

In the case of `Cc1cccc(OCC(O)CN2CCN(c3ccccn3)CC2)c1C` (stereo unspecified), the EC50 [4] is reported as > 120 µM (not active), the EC50 [5] is reported as > 120 µM (not active) and the EC50 [6] is reported as > 120 µM (not active). For the same compound, the EC50 (Mu-type opioid receptor) was 92.5 µM (inactive) and the EC50 [7] was 25.4 µM (inactive).

In the case of `CN(c1ccccc1)S(=O)(=O)c1cccc(NC(=O)c2cc(=O)c3ccccc3o2)c1`, the AC50 [8] is reported as 38.2 µM (active) and the AC50 [9] is reported as > 52 µM (inactive).

With `COc1ccc(CN2CCN(C(=O)c3ccco3)CC2)cc1` the EC50 (Mu-type opioid receptor) was 92.5 µM (inactive) and the EC50 [7] was 1.53 µM (active).

In the case of `COc1cc(-c2noc(C)c2/C=C/c2cccc([N+](=O)[O-])c2)cc(OC)c1OC`, the IC50 [10] is reported as 68.5 µM (inactive).

With `O=C(c1ccco1)N1CCN(Cc2ccccc2F)CC1` the EC50 (Mu-type opioid receptor) was 92.5 µM (inactive) and the EC50 [7] was 7.48 µM (active).

In the case of `O=C(COC(=O)c1ccc(Cl)c(S(=O)(=O)N2CCOCC2)c1)Nc1ccc2[nH]c(O)nc2c1`, the IC50 [11] is reported as > 66.6 µM (inactive) and the IC50 [12] is reported as 15.8 µM (active).

For `CCOC(=O)c1ccc(N2C(=O)C=CC2=O)cc1`, the IC50 [2] was 6.05 µM (active), the IC50 [3] was 2.46 µM (active) and the AC50 [13] was 0.691 µM (active).
